Series [1] relates to experimental auto-immune encephalomyelitis (EAE) development in mice. The note with it: Example 1; for AUC (area under the curve) of EAE scores: day 7 to 28 scoring; for AUC (area under the curve) of EAE scores / end score (clinical EAE score 0-5) / MMS (mean maximal score): vs negative control; for AUC (area under the curve) of EAE scores / disease onset / end score (clinical EAE score 0-5) / MMS (mean maximal score): combination also vs each single treatment; for disease onset / end score (clinical EAE score 0-5): peptide 100 μg/Alum s.c. days −21, −14, −7, BG-12 100 mg/kg p.o. BID days 0 to 27; for disease onset: vs negative control (Saline/Vehicle). The text has this:
Example 1: Effect of the prophylactic administration of an immunogenic peptide comprising a MOG35-55 MHCII T cell epitope and a HCPYC oxidoreductase motif in combination with dimethyl fumarate (BG-12, […]™) on experimental auto-immune encephalomyelitis (EAE) development in mice.
The study used a total of 64 female C57BL/6 mice (Taconic Biosciences, 10 weeks old on Day 0). Mice were acclimated for 8 days prior to the first injection. Mice were assigned to groups in a balanced manner to achieve similar average weight across the groups at the start of the study.
Treatment 1 was administered once on each of the days indicated in Table 1, s.c., at a volume of 0.05 mL/site, each mouse receiving injection at two sites, for a total of 0.1 mL/mouse/dosing day, corresponding to 100 μg of peptide.
BG-12 was dosed at 100 mg/kg. All dosing was done at the same time (+/−1 hour) each dosing day. For the BID groups there were no less than 10 and no more than 14 hours between doses.
For Treatment 1, 0.9% NaCl solution was prepared at each dosing day. […] (SEQ ID NO: 185), comprising an oxidoreductase motif HCPYC (SEQ ID NO: 71), a linker GW, a murine Myelin Oligodendrocyte Glycoprotein (MOG35-55) MHCII T cell epitope […] (SEQ ID NO: 169) and a flanking sequence HLYR (SEQ ID NO: 186) (Smart Bioscience) was solubilized immediately before use. Lyophilized IMCY-0189 was thawed at room temperature for 10 minutes, resuspended in Na Acetate buffer 50 mM pH 5.4 and incubated at room temperature for 5 minutes. Reconstituted peptide was then mixed with Imject™ Alum Adjuvant before injection.
For Treatment 2, vehicle was 0.5% HPMC, 0.2% Tween 20, and 50 mM citrate buffer at pH 4. BG-12 (or […]™, from Santa Cruz Biotechnology, catalog number sc-239774) was prepared once a week. At each preparation the required amount of BG-12 was weighed out into a mortar and triturated with a pestle. Vehicle was then added in small increments and mixed until the final volume was reached. The material was then vortexed and sonicated in a water bath until a homogeneous suspension was obtained. Formulated BG-12 was stored at 4° C., stirring continuously.
EAE was induced in all mice as follows: • Day 0, Hour 0—Immunization with a peptide corresponding to the amino acids 35-55 of MOG (MOG35-55)/CFA • Day 0, Hour 2—Injection of pertussis toxin • Day 1, Hour 0-2nd injection of pertussis toxin (24 hours after initial immunization).
Mice were injected subcutaneously at two sites in the back with the emulsion component (containing MOG35-55) of Hooke Kit™ MOG35-55/CFA Emulsion PTX, catalog number EK-2110 (lot #127, Hooke Laboratories, Lawrence Mass.). One site of injection was in the area of upper back, approximately 1 cm caudal of the neck line. The second site was in the area of lower back, approximately 2 cm cranial of the base of the tail. The injection volume was 0.1 mL at each site. Each mouse received 200 μg of MOG35-55.
Within 2 hours of the injection of emulsion, and then again 24 hours after the injection of emulsion, the pertussis toxin component of the kit was administered intraperitoneally. The pertussis toxin (lot #1008, Hooke Laboratories) was administered at 100 ng/dose for both injections and the volume of each injection was 0.1 mL.
Animals were scored daily starting from Day 7 to the end of the study. Scoring was performed blind, by a person unaware of both treatment and of previous scores for each mouse. In-between scores were assigned when the clinical signs fell between two above defined scores.
AUC, MMS, inflammation and demyelination, and NF-L levels quantification data were analyzed by performing Ordinary one-way ANOVA. Adjustment for multiplicity was performed using Holm-Sidak's method. Significant differences are referred as follows: *p<0.05, **p<0.01, ***p<0.001, ****p<0.0001.
(§1) EAE development was evaluated by comparing clinical EAE readouts for all groups to the negative control (Saline/Vehicle) group.

Series [2] shares this test system. Put plainly: Example 3: serum neurofilament light (NF-L) levels in EAE mice. Format: in vivo, female C57BL/6 mice. To be noted: Day 28 serum, vs negative control. As to the method:
On Day 28, blood was collected from all mice into gel clot activator tubes and allowed to clot at room temperature for ˜30 minutes. Blood is then centrifuged at ˜10000 g for 5 minutes. Serum was transferred into Eppendorf tubes and stored at −80° C. until shipment to Quanterix™. Serum Neurofilament light (NF-L) protein levels were quantified using Simoa® NF-light Advantage kit as described in example 1.

Series [3] has the same test system. To be noted: Example 4; for mice died in group: 16 mice per group; for disease onset: peptide 30 μg/Alum s.c. days 4, 9, 14, 19, BG-12 100 mg/kg p.o. BID days 0 to 27; for disease onset / AUC (area under the curve) of EAE scores / MMS (mean maximal score) / end score (clinical EAE score 0-5): vs negative control, combinations also vs peptides only or BG-12 only.
Excerpt: Example 4: Effect of the therapeutic administration of an immunogenic peptide comprising a human MOG201-212 MHCII T cell epitope linked to a KHCPYC oxidoreductase motif in combination with dimethyl fumarate (BG-12, […]™) on experimental auto-immune encephalomyelitis (EAE) development in mice.
The study used a total of 96 female C57BL/6 mice (Taconic Biosciences, 9 weeks old on Day 0). Mice were acclimated for 7 days prior to the first injection. Mice were assigned to groups in a balanced manner to achieve similar average weight across the groups at the start of the study.
Treatment 1 was administered once on each of the days indicated in Table 5, s.c., at a volume of 0.05 mL/site, each mouse receiving injection at two sites, for a total of 0.1 mL/mouse/dosing day. IMCY-0189 or P4 peptide total dose was 30 μg per administration.
BG-12 was dosed at 100 mg/kg.
All dosing were done at the same time (+/−1 hour) each dosing day. For the BID groups there were no less than 10 and no more than 14 hours between doses.
Lyophilized immunogenic peptide P4 with the sequence […] (SEQ ID NO: 176), comprising an oxidoreductase motif KHCPYC (SEQ ID NO: 77), a linker VRY, a human Myelin Oligodendrocyte Glycoprotein (MOG201-212) MHCII T cell epitope […] (SEQ ID NO: 165) and a flanking sequence TLFKK (SEQ ID NO: 267) (Smart Bioscience) was solubilized immediately before use. Lyophilized P4 was thawed at room temperature for 10 minutes, resuspended in Na Acetate buffer 50 mM NaCl 0.9% pH 5.4 and incubated at room temperature for 10 minutes. Reconstituted peptide was then mixed with Imject™ Alum Adjuvant before injection.
Treatment 2 was prepared as described in example 2.
EAE induction, scoring and statistical analysis were performed as described in example 2.
as §1

Where a name gives a salt, the structure may show the parent alone. Read-outs that look alike come from different tables or passages of the source.

In the case of `COC(=O)/C=C/C(=O)OC` [BG-12, dimethyl fumarate, reference compound], in series [1] (16 mice per group), the “mice died in group” value was “No mice died”. In series [1], the “AUC (area under the curve) of EAE scores” value is “statistically significant reduced”, the disease onset entry is listed as “postponed disease onset”, the “end score (clinical EAE score 0-5)” value is reported as “reduced end score” and the “MMS (mean maximal score)” value is reported as “statistically significant reduced”. In series [2], the “serum NF-L levels” value was “statistically significant reduced NF-L levels”. Besides, in series [3], the “mice died in group” value was “No mice died”, the disease onset entry was “postponed disease onset”, the “AUC (area under the curve) of EAE scores” value was “statistically significant reduced” and the “MMS (mean maximal score)” value is recorded as “statistically significant reduced”. In series [3], the “end score (clinical EAE score 0-5)” value is reported as “reduced end score”.
As to HCPYCGWYRSPFSRVVHLYR [IMCY-0189], in series [1] (16 mice per group), the “mice died due to severe EAE” value came out at 1 mouse and the “mice died in group” value worked out at 2 mice. In addition, in series [1], the “AUC (area under the curve) of EAE scores” value is listed as “statistically significant reduced”, the disease onset result is “postponed disease onset”, the “end score (clinical EAE score 0-5)” value is “reduced end score” and the “MMS (mean maximal score)” value was “statistically significant reduced”. In addition, the “serum NF-L levels” value in series [2] was “statistically significant reduced NF-L levels”. Besides, in series [3], the “mice died in group” value is reported as “No mice died”, the disease onset entry is “postponed disease onset”, the “AUC (area under the curve) of EAE scores” value is on record as “statistically significant reduced” and the “MMS (mean maximal score)” value is reported as “statistically significant reduced”. Further, in series [3], the “end score (clinical EAE score 0-5)” value was “reduced end score”.

The values above are taken from US20230172894A1, “COMBINATION TREATMENT FOR FUMARATE-RELATED DISEASES” (IMCYSE SA, priority 2020, published 2023).
